# In patent publication US20170009272A1, “IN-SILICO BASED TECHNIQUES IN THE IDENTIFICATION OF POTENT ß-GLUCORONIDASE INHIBITORS” (priority 2015, published 2017):
# Read-outs that look alike come from different tables or passages of the source.
# Assays:
# β-glucoronidase = molecular target: T1, β-glucoronidase (Escherichia coli, UniProt P05804); test: β-Glucuronidase inhibition assay (spectrophotometric, p-nitrophenyl-β-D-glucuronide substrate); type: biochemical; details: for % inhibition: test concentration not given
# T1 construct: purchased Sigma Aldrich G7396-25KU
# T1 sequence (P05804 whole entry): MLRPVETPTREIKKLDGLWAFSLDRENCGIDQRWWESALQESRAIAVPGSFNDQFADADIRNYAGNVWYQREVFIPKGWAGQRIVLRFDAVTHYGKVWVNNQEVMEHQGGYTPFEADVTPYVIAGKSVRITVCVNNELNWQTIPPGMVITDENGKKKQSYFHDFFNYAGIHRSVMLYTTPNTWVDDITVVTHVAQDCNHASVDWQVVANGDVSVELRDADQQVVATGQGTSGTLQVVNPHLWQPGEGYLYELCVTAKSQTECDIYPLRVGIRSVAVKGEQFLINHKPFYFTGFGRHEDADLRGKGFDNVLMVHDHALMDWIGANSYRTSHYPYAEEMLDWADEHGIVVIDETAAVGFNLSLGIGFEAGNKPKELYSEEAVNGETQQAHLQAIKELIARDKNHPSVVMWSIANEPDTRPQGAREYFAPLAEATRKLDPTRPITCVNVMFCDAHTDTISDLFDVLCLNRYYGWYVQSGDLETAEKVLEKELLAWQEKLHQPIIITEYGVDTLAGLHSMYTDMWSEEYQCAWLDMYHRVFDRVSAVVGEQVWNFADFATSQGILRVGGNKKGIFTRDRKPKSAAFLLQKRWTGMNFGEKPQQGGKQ
# Procedure: β-Glucuronidase inhibition assay protocol: Inhibitory activity of β-Glucuronidase was determined with the help of spectrophotometric method by measuring the absorbance at 405 nm of p-nitro phenol formed from the substrate (p-nitro phenyl-β-D-glucuronide, N1627-250 mg, Sigma Aldrich). The total reaction volume was 250 μL. The compound dissolved in DMSO (100%), which becomes 2% in the ultimate assay (250 μL) and the similar conditions were used for standard (D-saccharin acid 1,4-lactone, Sigma Aldrich). The reaction mixture contained 185 μL of 0.1 M acetate buffer, 5 μL of test compound solution, 10 μL of (1U) enzyme solution (G7396-25KU, Sigma Aldrich) was incubated at 37° C. for 30 min. The plates were read on a multiplate reader (SpectraMax plus 384) at 405 nm after the addition of 50 μL of 0.4 mM p-nitrophenyl-β-D-glucuronide. All assays were performed in triplicate. IC50 Values were calculated by using EZ-Fit software (Perrella Scientific Inc., Amherst, Mass., U.S.A.). These values are the mean of three independent readings.
# [1] = Cytotoxicity assay (MTT) on 3T3 mouse fibroblast cells; type: cell-based; details: 1-30 μM tested
# Procedure: (§1) Cytotoxicity assay Protocol: Cytotoxic activity of compounds was evaluated in 96-well flat-bottomed micro plates by using the standard MTT (3-[4,5-dimethylthiazole-2-yl]-2,5-diphenyl-tetrazolium bromide) colorimetric assay (15). For this purpose, 3T3 (mouse fibroblast) cells were cultured in Dulbecco's Modified Eagle Medium, supplemented with 5% of fetal bovine serum (FBS), 100 IU/ml of penicillin and 100 μg/ml of streptomycin in 75 cm^2 flasks, and kept in 5% CO2 incubator at 37° C. Exponentially growing cells were harvested, counted with haemocytometer and diluted with a particular medium. Cell culture with the concentration of 5×10^4 cells/ml was prepared and introduced (100 μL/well) into 96-well plates.
# (§2) After overnight incubation, medium was removed and 200 μL of fresh medium was added with different concentrations of compounds (1-30 μM). After 48 hrs, 200 ptL MTT (0.5 mg/ml) was added to each well and incubated further for 4 hrs. Subsequently, 100 μLof DMSO was added to each well. The extent of MTT reduction to formazan within cells was calculated by measuring the absorbance at 540 nm, using a micro plate reader (Spectra Max plus, Molecular Devices, Calif., USA). The cytotoxicity was recorded as concentration causing 50% growth inhibition (IC50) for 3T3 cells. The percent inhibition was calculated by using the following formula
# (§3) % inhibition=100−((mean of O.D of test compound−mean of O.D of negative control)/(mean of O.D of positive control−mean of O.D of negative control)*100).
# (§4) The results (% inhibition) were processed by using Soft-Max Pro software (Molecular Device, USA).
# [2] = system: 3T3 (mouse fibroblast) cells; test: as above; type: cell-based; details: 48 hrs, 1-30 μM tested
# Procedure: as §1, §2, §3, §4
# [3] = β-glucuronidase, 37° C., 30 min incubation, absorbance at 405 nm, mean of three readings, read-out: IC50
Compound,IC50 (β-glucoronidase),% inhibition (β-glucoronidase; β-glucuronidase),IC50 at 48 h [1],IC50 (β-glucoronidase; [3]),IC50 [2]
Oc1cccc(C(c2c[nH]c3ccc(Br)cc23)c2c[nH]c3ccc(Br)cc23)c1O [Compound 1],1.2 ± 1.03 µM,97.8%,16.8 ± 0.997 µM,–,–
O=C(/C=C/c1ccc(O)cc1)OC[C@@H]1C[C@H](Oc2cc(O)c3c(=O)cc(-c4ccc(O)cc4)oc3c2)[C@@H](O)[C@H](O)[C@H]1O [Compound 3],–,96.9%,> 30 µM,4.5 ± 0.44 µM,–
COc1ccc(C=NN2C(c3n[nH]c(=S)[nH]3)=C(O)c3ccccc3S2(=O)=O)cc1OC [Compound 5],11.41 ± 0.04 µM,78.1%,13.8 ± 0.967 µM,–,–
C=S1(=O)c2ccccc2C(O)=C(c2n[nH]c(=S)[nH]2)N1/N=C/c1ccc(OC)c(OC)c1OC (centres unmarked) [Compound 6],–,81.0%,17.1 ± 1.41 µM,11.8 ± 0.86 µM,–
CCN(CC)c1ccc(/C=N/N2C(c3n[nH]c(=S)[nH]3)=C(O)c3ccccc3S2(=O)=O)cc1 [Compound 7],–,95.1%,> 30 µM,14.7 ± 1.88 µM,–
COc1cccc(/C=N/N2C(c3n[nH]c(=S)[nH]3)=C(O)c3ccccc3S2(=O)=O)c1O [Compound 10],–,93.4%,–,–,19.5 ± 1.07 µM
N#Cc1ccc2[nH]cc(C(c3ccccc3[N+](=O)[O-])c3c[nH]c4ccc(C#N)cc34)c2c1 [Compound 11],34.9 ± 0.21 µM,57.3%,9.56 ± 0.134 µM,–,–
"O=C1OC(C(O)C(=O)O)C(O)C1O [D-sacharric 1,4-lactone, D-saccharic acid, 1,4-lactone, reference compound]",–,89.4%,–,45.5 ± 2.16 µM,–
"C[C@@H]1C[C@@H]([C@H](O)CC2CC(=O)NC(=O)C2)C(=O)[C@@H](C)C1 [cycloheximide, reference compound]",–,–,0.2 µM,–,–
